Results: patent US20100285959A1, “HERBICIDAL MIXTURES” (priority 2006, published 2010)

Tests used:
field pennycress (THLAR) = assay: Test 4 field trial, postemergence; assay type: in vivo, Thlaspi arvense; parameters: scale not given here; conditions: clodinafop 56 or fenoxaprop 90 g a.i./ha alone
Experimental: (§1) A field trial was conducted to evaluate the effects of mixtures of Compound 2 with commercial herbicides on spring wheat (TRZAS, Triticum aestivum L.) and several weed species. Wheat seeds (cv. ‘AC Intrepid’) were planted in late spring season, 3.8 cm deep in a loam soil having 2.7% organic matter and a pH of 7. Plots were 6 m long by 2.5 m wide. The field was managed using no-till practices. The plots were arranged in a randomized complete block design with each treatment being replicated four times. Treatments were applied postemergence 25 days after planting using a backpack sprayer delivering a spray volume of 55 L/ha using a pressure of 276 kPa. […] Compound 2 and clodinafop treatments, alone and in combination, also included a surfactant. Weed species present in the experimental plots in sufficient quantity to be evaluated included wild oat (AVEFA, Avena fatua L.), common lambsquarters (CHEAL, Chenopodium album L.), kochia (KCHSC, Kochia scoparia (L.) Schrad.), wild buckwheat (POLCO, Polygonum convolvulus L.), Russian thistle (SASKR, Salsola kali L. ssp. ruthenica (Iljin) Soo), and field pennycress (THLAR, Thlaspi arvense L.). […] Common lambsquarters was evaluated only at 14 days after application. […] Results are the means of the four replicates.

spring wheat (TRZAS) = assay: Test 4 field trial, postemergence; conditions: clodinafop 56 or fenoxaprop 90 g a.i./ha alone
Experimental: as §1

wild buckwheat (POLCO) = assay: Test 4 field trial, postemergence; assay type: in vivo, Polygonum convolvulus; conditions: clodinafop 56 or fenoxaprop 90 g a.i./ha alone
Experimental: as §1

kochia (KCHSC) = assay: Test 4 field trial, postemergence; assay type: in vivo, Kochia scoparia; conditions: clodinafop 56 g a.i./ha alone
Experimental: as §1

wild oat (AVEFA) = assay: Test 4 field trial, postemergence; assay type: in vivo, Avena fatua; parameters: scale not given here; conditions: clodinafop 56 or fenoxaprop 90 g a.i./ha alone
Experimental: as §1

[1] = system: common lambsquarters (CHEAL); assay: Test 4 field trial, postemergence; assay type: in vivo, Chenopodium album; conditions: clodinafop 56 or fenoxaprop 90 g a.i./ha alone
Russian thistle (SASKR) = assay: Test 4 field trial, postemergence; assay type: in vivo, Salsola kali; parameters: scale not given here; conditions: clodinafop 56 or fenoxaprop 90 g a.i./ha alone
Experimental: as §1

morningglory (IPOSS) = assay: Test 7 field trial, preemergence; assay type: in vivo, Ipomoea L. spp.
Experimental: (§2) Plots were 7.6 m long by 3.0 m wide with rows spaced 76 cm apart. Seeds were spaced 15 cm apart within the rows. The field was managed using conventional tillage practices. […] Wild radish was evaluated 14 and 28 days after application. […] Results are the means of the three replicates.

annual grasses (GGGAN) = assay: Test 7 field trial, preemergence; assay type: in vivo, Gramineae
Experimental: as §2

corn (ZEAMD) = assay: Test 7 field trial, preemergence; assay type: in vivo, Zea mays ssp. indentata; conditions: hybrid Pioneer 36B10, corn (Zea mays ssp. indentata), in vivo, 62 days after application
Experimental: as §2

jimsonweed (DATST) = assay: Test 7 field trial, preemergence; assay type: in vivo, Datura stramonium
Experimental: as §2

wild radish (RAPRA) = assay: Test 7 field trial, preemergence; assay type: in vivo, Raphanus raphanistrum
Experimental: as §2

[2] = system: Pennsylvania smartweed (POLPY); assay: Test 7 field trial, preemergence; assay type: in vivo, Polygonum pensylvanicum
Experimental: as §2

redroot pigweed (AMARE) = assay: Test 7 field trial, preemergence; assay type: in vivo, Amaranthus retroflexus
Experimental: as §2

For `C[C@@H](Oc1ccc(Oc2ncc(Cl)cc2F)cc1)C(=O)O` [Clodinafop], the “THLAR Obs” value (field pennycress (THLAR); 14 DAA) was 0, the “THLAR Obs” value (field pennycress (THLAR); 35 DAA) was 0 and the “TRZAS Obs” value (spring wheat (TRZAS); 14 DAA) was 0. The “TRZAS Obs” value (spring wheat (TRZAS); 35 DAA) was 0, the “TRZAS Obs” value (spring wheat (TRZAS); 55 DAA) was 0 and the “POLCO Obs” value (wild buckwheat (POLCO); 14 DAA) was 0. The “POLCO Obs” value (wild buckwheat (POLCO); 35 DAA) was 0, the “KCHSC Obs” value (kochia (KCHSC); 14 DAA) was 0 and the “KCHSC Obs” value (kochia (KCHSC); 35 DAA) was 0. For the same molecule, the “AVEFA Obs” value (wild oat (AVEFA); 14 DAA) was 97, the “AVEFA Obs” value (wild oat (AVEFA); 35 DAA) was 99 and the “AVEFA Obs” value (wild oat (AVEFA); 55 DAA) was 98. For the same molecule, the “CHEAL Obs” value ([1]; 14 DAA) was 0, the “CHEAL Obs” value ([1]; 35 DAA) was 0 and the “SASKR Obs” value (Russian thistle (SASKR); 14 DAA) was 0. For the same molecule, the “SASKR Obs” value (Russian thistle (SASKR); 35 DAA) was 0.
In the case of `CCOC(=O)c1nc(C2CC2)nc(N)c1Br` [Compound 6, ethyl 6-amino-5-bromo-2-cyclopropyl-4-pyrimidinecarboxylate], the “IPOSS Obs” value (morningglory (IPOSS); 14 DAA, 125 g a.i./ha) is reported as 93%, the “IPOSS Obs” value (morningglory (IPOSS); 14 DAA, 250 g a.i./ha) is reported as 100% and the “IPOSS Obs” value (morningglory (IPOSS); 14 DAA, 500 g a.i./ha) is reported as 100%. For the same molecule, the “IPOSS Obs” value (morningglory (IPOSS); 28 DAA, 125 g a.i./ha) was 93%, the “IPOSS Obs” value (morningglory (IPOSS); 28 DAA, 250 g a.i./ha) was 100% and the “IPOSS Obs” value (morningglory (IPOSS); 28 DAA, 500 g a.i./ha) was 100%. For the same molecule, the “IPOSS Obs” value (morningglory (IPOSS); 62 DAA, 125 g a.i./ha) was 100%, the “IPOSS Obs” value (morningglory (IPOSS); 62 DAA, 250 g a.i./ha) was 100% and the “IPOSS Obs” value (morningglory (IPOSS); 62 DAA, 500 g a.i./ha) was 100%. The “GGGAN Obs” value (annual grasses (GGGAN); 14 DAA, 125 g a.i./ha) was 7%, the “GGGAN Obs” value (annual grasses (GGGAN); 14 DAA, 250 g a.i./ha) was 53% and the “GGGAN Obs” value (annual grasses (GGGAN); 14 DAA, 500 g a.i./ha) was 63%. For the same molecule, the “GGGAN Obs” value (annual grasses (GGGAN); 28 DAA, 125 g a.i./ha) was 2%, the “GGGAN Obs” value (annual grasses (GGGAN); 28 DAA, 250 g a.i./ha) was 35% and the “GGGAN Obs” value (annual grasses (GGGAN); 28 DAA, 500 g a.i./ha) was 52%. For the same molecule, the “GGGAN Obs” value (annual grasses (GGGAN); 62 DAA, 125 g a.i./ha) was 90%, the “GGGAN Obs” value (annual grasses (GGGAN); 62 DAA, 250 g a.i./ha) was 0% and the “GGGAN Obs” value (annual grasses (GGGAN); 62 DAA, 500 g a.i./ha) was 0%. For the same molecule, the “ZEAMD Obs” value (corn (ZEAMD)) was 0%, the “DATST Obs” value (jimsonweed (DATST); 14 DAA, 125 g a.i./ha) was 87% and the “DATST Obs” value (jimsonweed (DATST); 14 DAA, 250 g a.i./ha) was 100%. For the same molecule, the “DATST Obs” value (jimsonweed (DATST); 14 DAA, 500 g a.i./ha) was 95%, the “DATST Obs” value (jimsonweed (DATST); 28 DAA, 125 g a.i./ha) was 90% and the “DATST Obs” value (jimsonweed (DATST); 28 DAA, 250 g a.i./ha) was 100%. For the same molecule, the “DATST Obs” value (jimsonweed (DATST); 28 DAA, 500 g a.i./ha) was 100%, the “DATST Obs” value (jimsonweed (DATST); 62 DAA, 125 g a.i./ha) was 75% and the “DATST Obs” value (jimsonweed (DATST); 62 DAA, 250 g a.i./ha) was 100%. The “DATST Obs” value (jimsonweed (DATST); 62 DAA, 500 g a.i./ha) was 90%, the “RAPRA Obs” value (wild radish (RAPRA); 14 DAA, 125 g a.i./ha) was 25% and the “RAPRA Obs” value (wild radish (RAPRA); 14 DAA, 250 g a.i./ha) was 40%. The “RAPRA Obs” value (wild radish (RAPRA); 14 DAA, 500 g a.i./ha) was 43%, the “RAPRA Obs” value (wild radish (RAPRA); 28 DAA, 125 g a.i./ha) was 35% and the “RAPRA Obs” value (wild radish (RAPRA); 28 DAA, 250 g a.i./ha) was 30%. For the same molecule, the “RAPRA Obs” value (wild radish (RAPRA); 28 DAA, 500 g a.i./ha) was 30%, the “POLPY Obs” value ([2]; 14 DAA, 125 g a.i./ha) was 40% and the “POLPY Obs” value ([2]; 14 DAA, 250 g a.i./ha) was 83%. The “POLPY Obs” value ([2]; 14 DAA, 500 g a.i./ha) was 93%, the “POLPY Obs” value ([2]; 28 DAA, 125 g a.i./ha) was 45% and the “POLPY Obs” value ([2]; 28 DAA, 250 g a.i./ha) was 80%. The “POLPY Obs” value ([2]; 28 DAA, 500 g a.i./ha) was 88%, the “POLPY Obs” value ([2]; 62 DAA, 125 g a.i./ha) was 75% and the “POLPY Obs” value ([2]; 62 DAA, 250 g a.i./ha) was 55%. The “POLPY Obs” value ([2]; 62 DAA, 500 g a.i./ha) was 100%, the “AMARE Obs” value (redroot pigweed (AMARE); 14 DAA, 125 g a.i./ha) was 87% and the “AMARE Obs” value (redroot pigweed (AMARE); 14 DAA, 250 g a.i./ha) was 98%. The “AMARE Obs” value (redroot pigweed (AMARE); 14 DAA, 500 g a.i./ha) was 98%, the “AMARE Obs” value (redroot pigweed (AMARE); 28 DAA, 125 g a.i./ha) was 82% and the “AMARE Obs” value (redroot pigweed (AMARE); 28 DAA, 250 g a.i./ha) was 97%. For the same molecule, the “AMARE Obs” value (redroot pigweed (AMARE); 28 DAA, 500 g a.i./ha) was 98%, the “AMARE Obs” value (redroot pigweed (AMARE); 62 DAA, 125 g a.i./ha) was 80% and the “AMARE Obs” value (redroot pigweed (AMARE); 62 DAA, 250 g a.i./ha) was 70%. The “AMARE Obs” value (redroot pigweed (AMARE); 62 DAA, 500 g a.i./ha) was 100%.
